Test results reported in patent publication US20140058103A1, “Inhibitors of PI3K-Delta and Methods of Their Use and Manufacture” (Exelixis, Inc., priority 2010, published 2014).

Molecular target: PI3K delta (Homo sapiens, UniProt O00329)
Test: Luciferase-coupled chemiluminescence kinase assay (ATP consumption, KinaseGlo)
Format: biochemical
Outline: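 ATP consumption measured by KinaseGlo luciferase chemiluminescence after a 2 h reaction at ambient temperature, with ATP at or below the kinase KM. Ten inhibitor concentrations per curve; IC50 from four-parameter nonlinear regression.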

Sequence of PI3K delta (O00329 whole entry): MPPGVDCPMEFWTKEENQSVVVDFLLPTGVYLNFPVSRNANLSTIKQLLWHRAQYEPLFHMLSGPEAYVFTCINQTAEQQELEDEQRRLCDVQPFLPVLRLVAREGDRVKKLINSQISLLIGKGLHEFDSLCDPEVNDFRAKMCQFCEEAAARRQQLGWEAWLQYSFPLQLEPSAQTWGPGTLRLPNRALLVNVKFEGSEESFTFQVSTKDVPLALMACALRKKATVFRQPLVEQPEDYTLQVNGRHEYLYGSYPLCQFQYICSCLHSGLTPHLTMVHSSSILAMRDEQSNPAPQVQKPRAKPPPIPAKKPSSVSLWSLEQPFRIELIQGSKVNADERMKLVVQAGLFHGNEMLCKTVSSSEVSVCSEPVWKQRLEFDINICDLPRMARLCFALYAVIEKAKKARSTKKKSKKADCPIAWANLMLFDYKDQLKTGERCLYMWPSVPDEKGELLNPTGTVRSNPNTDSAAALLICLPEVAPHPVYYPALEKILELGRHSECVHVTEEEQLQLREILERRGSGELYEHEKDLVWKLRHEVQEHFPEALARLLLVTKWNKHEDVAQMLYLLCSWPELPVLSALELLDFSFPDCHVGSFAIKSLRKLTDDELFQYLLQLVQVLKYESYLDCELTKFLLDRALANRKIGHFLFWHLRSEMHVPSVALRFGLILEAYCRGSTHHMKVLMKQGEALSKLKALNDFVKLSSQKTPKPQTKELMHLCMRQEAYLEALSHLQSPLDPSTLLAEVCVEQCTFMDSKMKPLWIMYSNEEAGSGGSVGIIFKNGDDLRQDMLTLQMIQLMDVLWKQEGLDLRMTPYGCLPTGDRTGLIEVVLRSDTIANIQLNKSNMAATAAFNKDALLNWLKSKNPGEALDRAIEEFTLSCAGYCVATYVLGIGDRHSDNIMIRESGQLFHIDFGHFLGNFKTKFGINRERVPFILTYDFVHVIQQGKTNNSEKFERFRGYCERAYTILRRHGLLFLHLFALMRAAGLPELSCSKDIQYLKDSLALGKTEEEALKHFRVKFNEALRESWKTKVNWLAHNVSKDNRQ
Sequence of PI3K delta (P27986 whole entry partner): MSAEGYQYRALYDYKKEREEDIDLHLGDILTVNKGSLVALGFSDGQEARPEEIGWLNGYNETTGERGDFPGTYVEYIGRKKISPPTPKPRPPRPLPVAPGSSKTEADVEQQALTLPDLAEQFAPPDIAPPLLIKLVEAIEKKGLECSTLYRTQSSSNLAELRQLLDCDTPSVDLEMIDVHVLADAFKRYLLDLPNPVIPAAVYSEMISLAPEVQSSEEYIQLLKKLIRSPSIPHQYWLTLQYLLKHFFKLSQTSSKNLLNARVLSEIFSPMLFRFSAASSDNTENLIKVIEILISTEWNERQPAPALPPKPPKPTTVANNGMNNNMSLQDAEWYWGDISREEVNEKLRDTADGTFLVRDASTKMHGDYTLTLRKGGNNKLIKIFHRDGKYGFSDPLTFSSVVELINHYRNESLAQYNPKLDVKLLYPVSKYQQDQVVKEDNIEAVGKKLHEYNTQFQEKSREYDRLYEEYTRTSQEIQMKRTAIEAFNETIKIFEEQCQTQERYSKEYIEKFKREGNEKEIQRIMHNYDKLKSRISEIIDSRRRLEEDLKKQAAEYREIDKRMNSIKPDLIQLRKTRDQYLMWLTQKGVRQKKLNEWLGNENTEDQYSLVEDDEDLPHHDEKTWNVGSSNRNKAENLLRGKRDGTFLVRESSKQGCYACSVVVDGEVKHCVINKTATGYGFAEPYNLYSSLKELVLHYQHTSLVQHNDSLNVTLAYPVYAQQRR

| IC50 [nM] | SMILES |
| --- | --- |
| 250 to 500 | CN(C)CCOc1cccc2c1[nH]c(=O)n2C1CCN(c2ncnc3c2nc(C(=O)NCC2CC2)n3C)CC1 [Compound 276, N-(cyclopropylmethyl)-6-[4-(4-{[2-(dimethylamino)ethyl]oxy}-2-oxo-2,3-dihydro-1H-benzimidazol-1-yl)piperidin-1-yl]-9-methyl-9H-purine-8-carboxamide] |
| 50 to 250 | CC1CC(n2c(=O)[nH]c3ccccc32)CCN1c1ncnc2c1nc(C(=O)NCC1CC1)n2C (stereo not drawn) [Compound 277, N-(cyclopropylmethyl)-9-methyl-6-[2-methyl-4-(2-oxo-2,3-dihydro-1H-benzimidazol-1-yl)piperidin-1-yl]-9H-purine-8-carboxamide] |
| 50 to 250 | Cn1c(C(=O)NCC2CC2)nc2c(N3CCC(n4c(=O)[nH]c5c(F)cccc54)CC3)ncnc21 [Compound 278, N-(cyclopropylmethyl)-6-[4-(4-fluoro-2-oxo-2,3-dihydro-1H-benzimidazol-1-yl)piperidin-1-yl]-9-methyl-9H-purine-8-carboxamide] |
| < 50 | Cn1c(-c2ccc(C(F)(F)F)nc2)nc2c(N3CCC(n4c(=O)[nH]c5ccccc54)CC3)ncnc21 [Compound 279, 1-(1-{9-methyl-8-[6-(trifluoromethyl)pyridin-3-yl]-9H-purin-6-yl}piperidin-4-yl)-1,3-dihydro-2H-benzimidazol-2-one] |
| 50 to 250 | Cn1c(-c2ccnnc2)nc2c(N3CCC(n4c(=O)[nH]c5ccccc54)CC3)ncnc21 [Compound 280, 1-[1-(9-methyl-8-pyridazin-4-yl-9H-purin-6-yl)piperidin-4-yl]-1,3-dihydro-2H-benzimidazol-2-one] |
| < 50 | CCn1ncc(-c2nc3c(N4CCC(n5c(=O)[nH]c6ccccc65)CC4)ncnc3n2C)c1C [Compound 281, 1-{1-[8-(1-ethyl-5-methyl-1H-pyrazol-4-yl)-9-methyl-9H-purin-6-yl]piperidin-4-yl}-1,3-dihydro-2H-benzimidazol-2-one] |
| < 50 | Cc1cncc(-c2nc3c(N4CCC(n5c(=O)[nH]c6ccccc65)CC4)ncnc3n2C)c1 [Compound 282, 1-{1-[9-methyl-8-(5-methylpyridin-3-yl)-9H-purin-6-yl]piperidin-4-yl}-1,3-dihydro-2H-benzimidazol-2-one] |
| < 50 | Cn1c(-c2ccc(Cl)nc2)nc2c(N3CCC(n4c(=O)[nH]c5ccccc54)CC3)ncnc21 [Compound 283, 1-{1-[8-(6-chloropyridin-3-yl)-9-methyl-9H-purin-6-yl]piperidin-4-yl}-1,3-dihydro-2H-benzimidazol-2-one] |
| 500 to 1500 | Cc1nc(C(F)(F)F)ccc1-c1nc2c(N3CCC(n4c(=O)[nH]c5ccccc54)CC3)ncnc2n1C [Compound 284, 1-(1-{9-methyl-8-[2-methyl-6-(trifluoromethyl)pyridin-3-yl]-9H-purin-6-yl}piperidin-4-yl)-1,3-dihydro-2H-benzimidazol-2-one] |
| < 50 | Cn1c(-c2cncc(Br)c2)nc2c(N3CCC(n4c(=O)[nH]c5ccccc54)CC3)ncnc21 [Compound 285, 1-{1-[8-(5-bromopyridin-3-yl)-9-methyl-9H-purin-6-yl]piperidin-4-yl}-1,3-dihydro-2H-benzimidazol-2-one] |
| < 50 | Cn1c(-c2cn[nH]c2-c2ccccc2)nc2c(N3CCC(n4c(=O)[nH]c5ccccc54)CC3)ncnc21 [Compound 286, 1-{1-[9-methyl-8-(5-phenyl-1H-pyrazol-4-yl)-9H-purin-6-yl]piperidin-4-yl}-1,3-dihydro-2H-benzimidazol-2-one] |
| < 50 | Cn1c(-c2cn[nH]c2C2CC2)nc2c(N3CCC(n4c(=O)[nH]c5ccccc54)CC3)ncnc21 [Compound 287, 1-{1-[8-(5-cyclopropyl-1H-pyrazol-4-yl)-9-methyl-9H-purin-6-yl]piperidin-4-yl}-1,3-dihydro-2H-benzimidazol-2-one] |
| < 50 | Cn1cncc1-c1nc2c(N3CCC(n4c(=O)[nH]c5ccccc54)CC3)ncnc2n1C [Compound 288, 1-{1-[9-methyl-8-(1-methyl-1H-imidazol-5-yl)-9H-purin-6-yl]piperidin-4-yl}-1,3-dihydro-2H-benzimidazol-2-one] |
| 50 to 250 | Cn1c(C(=O)NCC2CC2)nc2c(N3CC=C(n4c(=O)[nH]c5ccccc54)CC3)ncnc21 [Compound 289, N-(cyclopropylmethyl)-9-methyl-6-[4-(2-oxo-2,3-dihydro-1H-benzimidazol-1-yl)-3,6-dihydropyridin-1(2H)-yl]-9H-purine-8-carboxamide] |
| < 50 | Cn1c(-c2cccnc2)nc2c(N3CCC4(CC3)C(=O)Nc3ccccc34)ncnc21 [Compound 290, 1′-(9-methyl-8-pyridin-3-yl-9H-purin-6-yl)spiro[indole-3,4′-piperidin]-2(1H)-one] |
| < 50 | CCn1c(-c2cccnc2)nc2c(N3CCC4(CC3)C(=O)Nc3ccccc34)ncnc21 [Compound 291, 1′-(9-ethyl-8-pyridin-3-yl-9H-purin-6-yl)spiro[indole-3,4′-piperidin]-2(1H)-one] |
| < 50 | CCn1c(-c2cncnc2)nc2c(N3CCC4(CC3)C(=O)Nc3ccccc34)ncnc21 [Compound 292, 1′-(9-ethyl-8-pyrimidin-5-yl-9H-purin-6-yl)spiro[indole-3,4′-piperidin]-2(1H)-one] |

| IC50 [nM] | SMILES |
| --- | --- |
| < 50 | Cn1c(-c2cncnc2)nc2c(N3CCC4(CC3)C(=O)Nc3ccccc34)ncnc21 [Compound 293, 1′-(9-Methyl-8-pyrimidin-5-yl-9H-purin-6-yl)spiro[indole-3,4′-piperidin]-2(1H)-one] |
| < 50 | CCn1c(-c2cncnc2)nc2c(N3CCC(n4c(=O)[nH]c5ccccc54)CC3)ncnc21 [Compound 294, 1-[1-(9-ethyl-8-pyrimidin-5-yl-9H-purin-6-yl)piperidin-4-yl]-1,3-dihydro-2H-benzimidazol-2-one] |
| < 50 | Cn1cc(-c2nc3c(N4CCC(n5c(=O)[nH]c6c(F)cccc65)CC4)ncnc3n2C)cn1 [Compound 295, 4-fluoro-1-{1-[9-methyl-8-(1-methyl-1H-pyrazol-4-yl)-9H-purin-6-yl]piperidin-4-yl}-1,3-dihydro-2H-benzimidazol-2-one] |
| < 50 | CCn1c(-c2cccnc2)nc2c(N3CCC(n4c(=O)[nH]c5ccccc54)CC3)ncnc21 [Compound 296, 1-[1-(9-ethyl-8-pyridin-3-yl-9H-purin-6-yl)piperidin-4-yl]-1,3-dihydro-2H-benzimidazol-2-one] |
| 50 to 250 | Cn1c(-c2cccnn2)nc2c(N3CCC(n4c(=O)[nH]c5ccccc54)CC3)ncnc21 [Compound 297, 1-[1-(9-methyl-8-pyridazin-3-yl-9H-purin-6-yl)piperidin-4-yl]-1,3-dihydro-2H-benzimidazol-2-one] |
| 250 to 500 | Cn1c(-c2ccncn2)nc2c(N3CCC(n4c(=O)[nH]c5ccccc54)CC3)ncnc21 [Compound 298, 1-[1-(9-methyl-8-pyrimidin-4-yl-9H-purin-6-yl)piperidin-4-yl]-1,3-dihydro-2H-benzimidazol-2-one] |
| < 50 | COc1ccc(-c2nc3c(N4CCC(n5c(=O)[nH]c6ccccc65)CC4)ncnc3n2C)cn1 [Compound 299, 1-(1-{9-methyl-8-[6-(methyloxy)pyridin-3-yl]-9H-purin-6-yl}piperidin-4-yl)-1,3-dihydro-2H-benzimidazol-2-one] |
| 500 to 1500 | Cn1c(-c2ccc(O)nc2)nc2c(N3CCC(n4c(=O)[nH]c5ccccc54)CC3)ncnc21 [Compound 300, 1-{1-[8-(6-hydroxypyridin-3-yl)-9-methyl-9H-purin-6-yl]piperidin-4-yl}-1,3-dihydro-2H-benzimidazol-2-one] |
| < 50 | Cn1c(-c2c[nH]c3ncccc23)nc2c(N3CCC(n4c(=O)[nH]c5ccccc54)CC3)ncnc21 [Compound 301, 1-{1-[9-methyl-8-(1H-pyrrolo[2,3-b]pyridin-3-yl)-9H-purin-6-yl]piperidin-4-yl}-1,3-dihydro-2H-benzimidazol-2-one] |
| < 50 | Cn1c(-c2cnc3[nH]ccc3c2)nc2c(N3CCC(n4c(=O)[nH]c5ccccc54)CC3)ncnc21 [Compound 302, 1-{1-[9-methyl-8-(1H-pyrrolo[2,3-b]pyridin-5-yl)-9H-purin-6-yl]piperidin-4-yl}-1,3-dihydro-2H-benzimidazol-2-one] |
| < 50 | Cn1c(-c2ccc(N)nc2)nc2c(N3CCC(n4c(=O)[nH]c5ccccc54)CC3)ncnc21 [Compound 303, 1-{1-[8-(6-aminopyridin-3-yl)-9-methyl-9H-purin-6-yl]piperidin-4-yl}-1,3-dihydro-2H-benzimidazol-2-one] |
| < 50 | CCn1c(-c2cnc(N)nc2)nc2c(N3CCC(n4c(=O)[nH]c5ccccc54)CC3)ncnc21 [Compound 304, 1-{1-[8-(2-aminopyrimidin-5-yl)-9-ethyl-9H-purin-6-yl]piperidin-4-yl)-1,3-dihydro-2H-benzimidazol-2-one] |
| < 50 | Cn1c(-c2cnc(N)nc2)nc2c(N3CCC(n4c(=O)[nH]c5ccccc54)CC3)ncnc21 [Compound 305, 1-{1-[8-(2-aminopyrimidin-5-yl)-9-methyl-9H-purin-6-yl]piperidin-4-yl}-1,3-dihydro-2H-benzimidazol-2-one] |
| < 50 | CCn1c(-c2cnc(OC)nc2)nc2c(N3CCC(n4c(=O)[nH]c5ccccc54)CC3)ncnc21 [Compound 306, 1-(1-{9-ethyl-8-[2-(methyloxy)pyrimidin-5-yl]-9H-purin-6-yl}piperidin-4-yl)-1,3-dihydro-2H-benzimidazol-2-one] |
| < 50 | CCn1c(-c2cnc(NC)nc2)nc2c(N3CCC(n4c(=O)[nH]c5ccccc54)CC3)ncnc21 [Compound 307, 1-(1-{9-ethyl-8-[2-(methylamino)pyrimidin-5-yl]-9H-purin-6-yl)piperidin-4-yl)-1,3-dihydro-2H-benzimidazol-2-one] |
| 50 to 250 | COc1ncc(-c2nc3c(N4CCC(n5c(=O)[nH]c6ccccc65)CC4)ncnc3n2C)c(OC)n1 [Compound 308, 1-(1-{8-[2,4-bis(methyloxy)pyrimidin-5-yl]-9-methyl-9H-purin-6-yl)piperidin-4-yl)-1,3-dihydro-2H-benzimidazol-2-one] |
